How the values were obtained:
human recombinant HDAC1 = molecular target: T1, human recombinant HDAC1 (Homo sapiens, UniProt Q13547); experiment: HDAC1 enzyme activity inhibition (HDAC Fluorimetric Drug Discovery Kit); assay type: biochemical; conditions: human recombinant HDAC1, Fluor de Lys substrate, 30° C. 60 minutes; read-out: HDAC1
T1 construct: purchased Enzo Life Science, Inc. BML-SE456
In short: (§1)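 Fluorimetric deacetylase read-out. 5-fold compound dilutions; […] enzyme, 10 μM substrate; 30° C, 60 min; developer 30 min.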

human recombinant HDAC6 = molecular target: T2, human recombinant HDAC6 (Homo sapiens, UniProt Q9UBN7); experiment: HDAC6 enzyme activity inhibition (HDAC Fluorimetric Drug Discovery Kit); assay type: biochemical; conditions: for HDAC6 selectivity (fold): HDAC6 over HDAC1; for IC50: human recombinant HDAC6, same protocol as HDAC1
T2 construct: purchased Calbiochem Inc. 382180
T2 sequence (Q9UBN7 1-1215): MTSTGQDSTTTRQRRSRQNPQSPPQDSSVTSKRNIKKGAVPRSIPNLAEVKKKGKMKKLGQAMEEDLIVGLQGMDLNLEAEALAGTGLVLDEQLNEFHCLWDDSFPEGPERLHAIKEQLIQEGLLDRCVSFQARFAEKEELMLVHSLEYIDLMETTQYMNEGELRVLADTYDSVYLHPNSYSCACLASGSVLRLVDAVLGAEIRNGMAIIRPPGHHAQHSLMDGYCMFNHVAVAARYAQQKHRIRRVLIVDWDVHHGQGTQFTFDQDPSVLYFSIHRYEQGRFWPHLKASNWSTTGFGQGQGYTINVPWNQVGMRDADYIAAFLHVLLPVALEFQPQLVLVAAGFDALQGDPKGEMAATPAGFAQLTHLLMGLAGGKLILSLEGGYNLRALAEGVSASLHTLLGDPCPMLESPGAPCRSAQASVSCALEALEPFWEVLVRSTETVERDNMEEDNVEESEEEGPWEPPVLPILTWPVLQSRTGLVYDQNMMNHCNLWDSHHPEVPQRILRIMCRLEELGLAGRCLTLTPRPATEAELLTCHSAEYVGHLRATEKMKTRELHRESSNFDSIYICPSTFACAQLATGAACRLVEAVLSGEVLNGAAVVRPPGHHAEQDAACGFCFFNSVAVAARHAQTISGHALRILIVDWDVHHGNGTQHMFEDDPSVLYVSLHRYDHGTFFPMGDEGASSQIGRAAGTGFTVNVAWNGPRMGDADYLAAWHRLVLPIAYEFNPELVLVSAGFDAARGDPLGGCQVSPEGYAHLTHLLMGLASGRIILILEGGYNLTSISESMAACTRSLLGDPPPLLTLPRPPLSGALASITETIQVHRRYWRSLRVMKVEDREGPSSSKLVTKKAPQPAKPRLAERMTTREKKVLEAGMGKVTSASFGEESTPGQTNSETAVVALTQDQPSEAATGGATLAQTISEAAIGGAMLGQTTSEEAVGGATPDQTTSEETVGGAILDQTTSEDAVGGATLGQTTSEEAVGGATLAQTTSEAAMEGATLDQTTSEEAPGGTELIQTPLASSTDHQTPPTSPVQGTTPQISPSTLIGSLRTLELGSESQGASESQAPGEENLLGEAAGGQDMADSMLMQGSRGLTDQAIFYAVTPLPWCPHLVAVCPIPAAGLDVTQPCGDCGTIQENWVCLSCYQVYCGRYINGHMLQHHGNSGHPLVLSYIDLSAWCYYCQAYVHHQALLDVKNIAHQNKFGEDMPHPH
In short: as §1

T1 sequence (Q13547 whole entry): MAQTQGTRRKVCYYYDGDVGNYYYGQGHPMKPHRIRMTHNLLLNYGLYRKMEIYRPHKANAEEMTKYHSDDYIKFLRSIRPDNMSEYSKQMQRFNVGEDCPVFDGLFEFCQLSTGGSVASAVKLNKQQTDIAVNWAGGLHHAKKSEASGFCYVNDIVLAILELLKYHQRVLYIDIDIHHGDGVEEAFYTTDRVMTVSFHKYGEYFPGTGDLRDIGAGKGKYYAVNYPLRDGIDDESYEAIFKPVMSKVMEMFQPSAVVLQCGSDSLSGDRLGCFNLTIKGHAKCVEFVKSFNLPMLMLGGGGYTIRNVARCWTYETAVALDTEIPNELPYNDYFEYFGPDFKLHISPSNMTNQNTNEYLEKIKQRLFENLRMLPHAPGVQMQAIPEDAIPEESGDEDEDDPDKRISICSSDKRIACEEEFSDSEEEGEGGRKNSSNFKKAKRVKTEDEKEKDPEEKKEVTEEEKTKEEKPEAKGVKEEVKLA

Row | SMILES | IC50 (human recombinant HDAC1) [nM] | HDAC6 selectivity (fold) (human recombinant HDAC6) | IC50 (human recombinant HDAC6) [nM]
1 | CCN1Cc2cccc(-c3cn(Cc4ccc(-c5nnc(C(F)F)o5)cc4F)nn3)c2C1 [Compound 4535, 2-(difluoromethyl)-5-(4-((4-(2-ethylisoindolin-4-yl)-1H-1,2,3-triazol-1-yl)methyl)-3-fluorophenyl)-1,3,4-oxadiazole] | > 50000 | 512 | 97.5
2 | CC(C)N1Cc2cccc(-c3cn(Cc4ccc(-c5nnc(C(F)F)o5)cc4F)nn3)c2C1 [Compound 4536, 2-(difluoromethyl)-5-(3-fluoro-4-((4-(2-isopropylisoindolin-4-yl)-1H-1,2,3-triazol-1-yl)methyl)phenyl)-1,3,4-oxadiazole] | > 50000 | 572 | 87.4
3 | Fc1cc(-c2nnc(C(F)F)o2)ccc1Cn1cc(-c2cccc3c2CN(C2CCC2)C3)nn1 [Compound 4537, 2-(4-((4-(2-cyclobutylisoindolin-4-yl)-1H-1,2,3-triazol-1-yl)methyl)-3-fluorophenyl)-5-(difluoromethyl)-1,3,4-oxadiazole] | > 50000 | 657 | 76
4 | Fc1cc(-c2nnc(C(F)F)o2)ccc1Cn1cc(-c2cccc3c2CN(C2COC2)C3)nn1 [Compound 4538, 2-(difluoromethyl)-5-(3-fluoro-4-((4-(2-(oxetan-3-yl)isoindolin-4-yl)-1H-1,2,3-triazol-1-yl)methyl)phenyl)-1,3,4-oxadiazole] | > 50000 | 539 | 92.7
5 | CN1Cc2ccc(-c3cn(Cc4ccc(-c5nnc(C(F)F)o5)cn4)nn3)cc2C1 [Compound 4540, 2-(difluoromethyl)-5-(6-((4-(2-methylisoindolin-5-yl)-1H-1,2,3-triazol-1-yl)methyl)pyridin-3-yl)-1,3,4-oxadiazole] | > 50000 | 583 | 85.7
6 | FC(F)c1nnc(-c2ccc(Cn3cc(-c4ccc5c(c4)CN(C4CCC4)C5)nn3)nc2)o1 [Compound 4542, 2-(6-((4-(2-cyclobutylisoindolin-5-yl)-1H-1,2,3-triazol-1-yl)methyl)pyridin-3-yl)-5-(difluoromethyl)-1,3,4-oxadiazole] | > 50000 | 1336 | 37.4
7 | FC(F)c1nnc(-c2ccc(Cn3cc(-c4ccc5c(c4)CN(C4COC4)C5)nn3)nc2)o1 [Compound 4543, 2-(difluoromethyl)-5-(6-((4-(2-(oxetan-3-yl)isoindolin-5-yl)-1H-1,2,3-triazol-1-yl)methyl)pyridin-3-yl)-1,3,4-oxadiazole] | > 50000 | 1326 | 37.7
8 | FC(F)c1nnc(-c2ccc(Cn3cc(-c4ccc(CN5CCC5)cc4)nn3)cc2)o1 [Compound 4548, 2-(4-((4-(4-(azetidin-1-ylmethyl)phenyl)-1H-1,2,3-triazol-1-yl)methyl)phenyl)-5-(difluoromethyl)-1,3,4-oxadiazole] | > 50000 | 4545 | 13.1
9 | FC(F)c1nnc(-c2ccc(Cn3cc(-c4ccc(CN5CCCC5)cc4)nn3)cc2)o1 [Compound 4550, 2-(difluoromethyl)-5-(4-((4-(4-(pyrrolidin-1-ylmethyl)phenyl)-1H-1,2,3-triazol-1-yl)methyl)phenyl)-1,3,4-oxadiazole] | > 50000 | 2762 | 18.1
10 | FC(F)c1nnc(-c2ccc(Cn3cc(-c4ccc(CN5CC6(COC6)C5)cc4)nn3)cc2)o1 [Compound 4551, 6-(4-(1-(4-(5-(difluoromethyl)-1,3,4-oxadiazol-2-yl)benzyl)-1H-1,2,3-triazol-4-yl)benzyl)-2-oxa-6-azaspiro[3.3]heptane] | > 50000 | 4761 | 10.5
11 | CN(C)C1CCN(Cc2ccc(-c3cn(Cc4ccc(-c5nnc(C(F)F)o5)cc4)nn3)cc2)CC1 [Compound 4554, 1-(4-(1-(4-(5-(difluoromethyl)-1,3,4-oxadiazol-2-yl)benzyl)-1H-1,2,3-triazol-4-yl)benzyl)-N,N-dimethylpiperidin-4-amine] | > 50000 | 773 | 64.6
12 | FC(F)c1nnc(-c2ccc(Cn3cc(-c4ccc(CNC5COC5)cc4)nn3)cc2)o1 [Compound 4556, N-(4-(1-(4-(5-(difluoromethyl)-1,3,4-oxadiazol-2-yl)benzyl)-1H-1,2,3-triazol-4-yl)benzyl)oxetan-3-amine] | > 50000 | 682 | 73.3
13 | CN1CC(NCc2ccc(-c3cn(Cc4ccc(-c5nnc(C(F)F)o5)cc4)nn3)cc2)C1 [Compound 4557, N-(4-(1-(4-(5-(difluoromethyl)-1,3,4-oxadiazol-2-yl)benzyl)-1H-1,2,3-triazol-4-yl)benzyl)-1-methylazetidin-3-amine] | > 50000 | 801 | 62.4

Other lines, results leading:

Row | IC50 (human recombinant HDAC1) [nM] | HDAC6 selectivity (fold) (human recombinant HDAC6) | IC50 (human recombinant HDAC6) [nM] | SMILES
14 | > 50000 | 776 | 64.4 | FC(F)c1nnc(-c2ccc(Cn3cc(-c4ccc5c(c4)CNC5)nn3)nc2)o1 [Compound 4539, 2-(difluoromethyl)-5-(6-((4-(isoindolin-5-yl)-1H-1,2,3-triazol-1-yl)methyl)pyridin-3-yl)-1,3,4-oxadiazole]
15 | > 50000 | 1470 | 34 | CC(C)N1Cc2ccc(-c3cn(Cc4ccc(-c5nnc(C(F)F)o5)cn4)nn3)cc2C1 [Compound 4541, 2-(difluoromethyl)-5-(6-((4-(2-isopropylisoindolin-5-yl)-1H-1,2,3-triazol-1-yl)methyl)pyridin-3-yl)-1,3,4-oxadiazole]
16 | > 50000 | 1213 | 41.2 | FC1CN(Cc2ccc(-c3cn(Cc4ccc(-c5nnc(C(F)F)o5)cc4)nn3)cc2)C1 [Compound 4549, 2-(difluoromethyl)-5-(4-((4-(4-((3-fluoroazetidin-1-yl)methyl)phenyl)-1H-1,2,3-triazol-1-yl)methyl)phenyl)-1,3,4-oxadiazole]
17 | > 50000 | 1184 | 42.2 | CN1CCN(Cc2ccc(-c3cn(Cc4ccc(-c5nnc(C(F)F)o5)cc4)nn3)cc2)CC1 [Compound 4552, 2-(difluoromethyl)-5-(4-((4-(4-((4-methylpiperazin-1-yl)methyl)phenyl)-1H-1,2,3-triazol-1-yl)methyl)phenyl)-1,3,4-oxadiazole]
18 | > 50000 | 986 | 50.7 | CCN1CCN(Cc2ccc(-c3cn(Cc4ccc(-c5nnc(C(F)F)o5)cc4)nn3)cc2)CC1 [Compound 4553, 2-(difluoromethyl)-5-(4-((4-(4-((4-ethylpiperazin-1-yl)methyl)phenyl)-1H-1,2,3-triazol-1-yl)methyl)phenyl)-1,3,4-oxadiazole]
19 | > 50000 | 2100 | 23.8 | FC(F)c1nnc(-c2ccc(Cn3cc(-c4ccc(CNC5CCC5)cc4)nn3)cc2)o1 [Compound 4555, N-(4-(1-(4-(5-(difluoromethyl)-1,3,4-oxadiazol-2-yl)benzyl)-1H-1,2,3-triazol-4-yl)benzyl)cyclobutanamine]
20 | > 50000 | 5882 | 8.5 | FC(F)c1nnc(-c2ccc(Cn3cc(-c4ccc(CN5CCC5)cc4)nn3)nc2)o1 [Compound 4558, 2-(6-((4-(4-(azetidin-1-ylmethyl)phenyl)-1H-1,2,3-triazol-1-yl)methyl)pyridin-3-yl)-5-(difluoromethyl)-1,3,4-oxadiazole]
21 | > 50000 | 2347 | 21.3 | FC1CN(Cc2ccc(-c3cn(Cc4ccc(-c5nnc(C(F)F)o5)cn4)nn3)cc2)C1 [Compound 4559, 2-(difluoromethyl)-5-(6-((4-(4-((3-fluoroazetidin-1-yl)methyl)phenyl)-1H-1,2,3-triazol-1-yl)methyl)pyridin-3-yl)-1,3,4-oxadiazole]

Reference: patent publication US20230257372A1 (CHONG KUN DANG PHARMACEUTICAL CORP., priority 2020, published 2023)
